Consider 1 compound from PMC10121968, “Fosgonimeton, a Novel Positive Modulator of the HGF/MET System, Promotes Neurotrophic and Procognitive Effects in Models of Dementia” (Neurotherapeutics, 2022).

The target of one data set is T1, MET receptor (Homo sapiens, UniProt P08581).
T1 construct: pMET enzyme-linked immunosorbent assay (ELISA) of human embryonic kidney (HEK293) cell lysates; endogenous in cells; host or cells: HEK293 (ATCC CRL-1573)
In words: Phosphorylated MET receptor (pMET) ELISA in HEK293 cell lysates. As to conditions: HEK293 cells, 1 ng/mL HGF, 0.001–100 nM, 15 min. The class given is cell-based. Here is the method: Human embryonic kidney (HEK293, ATCC CRL-1573) cells were grown at 37 °C, 5% CO2 in Dulbecco's Modified Eagle Medium (DMEM) + 10% fetal bovine serum (FBS) in T-75 flasks until approximately 90% confluent and then seeded in polystyrene-treated 6-well plates for at least 8 h in serum-free growth media. Recombinant HGF protein (R&D Systems, Minneapolis, Minnesota) with or without experimental small-molecule treatment cocktails (Jubilant Biosys, Uttar Pradesh, India) were prepared in DMEM + 0.1% FBS and added to wells in triplicate for 15 min. Cells were lysed with 180 μL ice-cold RIPA buffer including a phosphatase inhibitor (PhosphataseArrest, G-Biosciences, St. Louis, Missouri) on ice for 15 min and then cleared by centrifugation at 16,000 g. Bicinchoninic acid (BCA) assays of lysates were used to normalize protein concentration across samples. Phosphorylated MET receptor (pMET) enzyme-linked immunosorbent assay (ELISA) kit processing was carried out according to the manufacturer’s instructions (Phospho-MET [Tyr1234/1235] Sandwich ELISA Kit, CST #7227C, Cell Signaling Technology, Danvers, Massachusetts). Raw absorbance signals were scaled between subthreshold (1 ng/mL HGF) and saturating (10 ng/mL HGF) controls such that HGF 1 ng/mL = 1 and HGF 10 ng/mL = 10. The statistical difference from subthreshold control was determined by Student’s t-test. […]

Data set [1] deals with primary rat cortical neurons. In words: Neuroprotection, Cell Titer-Glo cell viability assay. Particulars: for percentage of recovery of cell viability: 1 µM, 24 h. The class given is cell-based. On the procedure:
A Cell Titer-Glo (CTG) Luminescent Cell Viability Assay (Promega, Cat #G7571, Madison, Wisconsin) was used to assess the neuroprotective potential of fosgo-AM. Brain cortices were dissected from P1–3 rat pups and homogenized in DMEM containing 10% FBS. The resulting suspension was then incubated with a DNase/papain/trypsin solution for 30 min at 37 °C, followed by incubation in a collagenase solution for 1 h. Cells were then seeded at 5000 cells/well in 384-well plates and maintained at 37 °C and 5% CO2 in Complete Neurobasal Medium supplemented with B27/GDNF/BDNF containing 10% FBS. One day later, cultures were switched to serum-free neurobasal medium supplemented with 2% B27 and maintained until neuronal maturity (35–40 DIV). Media were changed every 3 days, and fresh medium was applied 24 h before each experiment. Cells were then treated with fosgo-AM at 1 µM, 100 nM, 10 nM, or 1 nM in a 0.5% DMSO vehicle for 15 min, and subjected to several conditional insults, including 1-methyl-4-phenylpryidinium (MPP+; 500 µM), glutamate (25 µM), lipopolysaccharide (LPS; 1 µM), or hydrogen peroxide (H2O2; 1 µM) for 24 h. After 24 h, 25 µL CTG reagent was added to each well and the plate was incubated with shaking for 15 min. Luminescence measurements to assess relative levels of ATP were performed on an Envision plate reader (PerkinElmer, Waltham, Massachusetts). Data for the vehicle control were set to 100% cell viability, and data for each other group were averaged, normalized to vehicle control, and presented as mean ± SEM. Data were assessed for normality (Shapiro–Wilk) and homoscedasticity (Brown-Forsythe). Statistical analyses were performed using one-way ANOVA with Tukey’s Multiple Comparison test (Prism GraphPad, San Diego, California). A value of p < 0.05 was considered to represent a statistically significant difference.

A short description of data set [2]: Fosgonimeton CNS distribution in mice. The format is in vivo, mouse. As to conditions: 5 mg/kg fosgonimeton IV, whole brain, 0.16 h. On the procedure:
Four C57BL/6 mice—2 males and 2 females—were treated with 5 mg/kg fosgonimeton via intravenous (IV) injection. At 0.16 h after dosing, animals were humanely killed and perfused with normal saline. The whole brain was collected and homogenized before determination of fosgonimeton and fosgo-AM tissue penetration by LC/MS/MS.

Molecules are shown by their SMILES. Non-standard residues stand in square brackets, D forms with d. Residues, ends and D or L forms follow the SMILES beside them. *: point of attachment. Hexanoyl = CCCCCC(=O)*; Ahx = NCCCCCC(=O)O

T1 sequence (P08581 308-1390 limits assumed): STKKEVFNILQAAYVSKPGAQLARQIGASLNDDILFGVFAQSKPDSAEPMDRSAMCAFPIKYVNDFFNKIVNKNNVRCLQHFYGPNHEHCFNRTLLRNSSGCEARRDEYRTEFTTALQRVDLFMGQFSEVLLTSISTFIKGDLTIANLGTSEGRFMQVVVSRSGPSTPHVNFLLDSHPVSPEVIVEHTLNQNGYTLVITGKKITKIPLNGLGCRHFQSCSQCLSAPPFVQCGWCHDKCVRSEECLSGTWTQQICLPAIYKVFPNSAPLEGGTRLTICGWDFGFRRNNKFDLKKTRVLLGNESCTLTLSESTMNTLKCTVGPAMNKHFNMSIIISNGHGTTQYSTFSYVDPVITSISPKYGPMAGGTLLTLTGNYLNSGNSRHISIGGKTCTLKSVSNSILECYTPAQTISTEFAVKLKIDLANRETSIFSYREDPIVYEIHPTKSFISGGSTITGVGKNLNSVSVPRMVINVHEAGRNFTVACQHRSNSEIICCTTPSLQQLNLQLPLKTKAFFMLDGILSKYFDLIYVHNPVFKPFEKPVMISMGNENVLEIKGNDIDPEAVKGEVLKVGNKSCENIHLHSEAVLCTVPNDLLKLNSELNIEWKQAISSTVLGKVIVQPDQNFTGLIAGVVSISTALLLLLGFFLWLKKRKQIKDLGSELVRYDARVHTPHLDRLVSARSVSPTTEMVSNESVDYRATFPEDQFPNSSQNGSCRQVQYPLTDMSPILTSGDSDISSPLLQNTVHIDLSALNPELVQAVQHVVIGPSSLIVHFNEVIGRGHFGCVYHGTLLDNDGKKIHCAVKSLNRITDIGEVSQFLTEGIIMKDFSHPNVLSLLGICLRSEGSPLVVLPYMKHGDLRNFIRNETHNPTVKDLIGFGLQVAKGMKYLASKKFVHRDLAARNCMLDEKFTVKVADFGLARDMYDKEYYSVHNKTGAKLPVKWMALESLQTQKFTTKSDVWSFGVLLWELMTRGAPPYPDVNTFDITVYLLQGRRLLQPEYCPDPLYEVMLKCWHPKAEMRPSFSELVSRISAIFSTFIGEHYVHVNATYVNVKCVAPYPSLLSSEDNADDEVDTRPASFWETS
T1 sequence (P08581 25-307 limits assumed): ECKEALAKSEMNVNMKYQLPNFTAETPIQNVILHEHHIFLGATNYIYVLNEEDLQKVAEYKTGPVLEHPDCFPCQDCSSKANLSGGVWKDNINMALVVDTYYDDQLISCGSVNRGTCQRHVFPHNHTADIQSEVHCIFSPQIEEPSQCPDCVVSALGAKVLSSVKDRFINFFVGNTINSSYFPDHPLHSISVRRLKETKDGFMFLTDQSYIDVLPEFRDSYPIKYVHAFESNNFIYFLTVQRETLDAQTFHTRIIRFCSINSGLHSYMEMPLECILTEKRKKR

For the compound `CCCCCC(=O)N[C@@H](Cc1ccc(O)cc1)C(=O)N[C@H](C(=O)NCCCCCC(N)=O)[C@@H](C)CC` [fosgo-AM] (Hexanoyl-Tyr-Ile-[Ahx]-NH2), the “enhancement of pMET levels in the presence of low HGF” value on MET receptor is on record as “most potent positive modulator of HGF/MET”. In addition, the “percentage of recovery of cell viability” value in data set [1] (versus H2O2 (1 µM)) was found to be 144%; in data set [1] (versus LPS (1 µM)), 93%; in data set [1] (versus MPP+ (500 µM)), 85%; in data set [1] (versus glutamate (25 µM)) it was 61%. Further, in data set [1] (all tested concentrations (1 nM–1 µM), against all insults (MPP+, glutamate, LPS, H2O2)), the cell viability result is “Significant improvement in cell viability”. In data set [2], the “Cmax, ng/g ± SEM” value was determined as 7.9 ± 2.3 ng/g.
